Measured values as given in patent US20130190514A1, “PHENYLALKYL N-HYDROXYUREAS FOR TREATING LEUKOTRIENE RELATED PATHOLOGIES” (TALLIKUT PHARMACEUTICALS, INC., priority 2010, published 2013).

Experiments:
[1] = tested on: high sensitivity C reactive protein (hsCRP); assay: hsCRP in blood by immunoturbidimetric method, Phase 2 ACS study; format: in vivo, human
Method: (§1) In this randomized, placebo-controlled study, 191 patients were randomized 3 weeks after an acute coronary syndrome (ACS) to receive 25, 50, or 100 mg N-[3-[5-[(4-fluorophenyl)methyl]-2-thienyl]-1-methyl-2-propynyl]-N-hydroxyurea or placebo qd for 12 weeks. Baseline assessments were performed at the start of treatment and these baseline results were compared with repeat assessments during various follow-up periods during the treatment study. A subset of 93 patients who had undergone a Multidetector (64 slice coronary) Computerized Tomography (MDCT) examination at baseline continued on study medication for a total of 24 weeks and underwent a repeat scan. Patients received a single daily oral dose of 25 mg, 50 mg, or 100 mg of N-[3-[5-[(4-fluorophenyl)methyl]-2-thienyl]-1-methyl-2-propynyl]-N-hydroxyurea or matching placebo by administering 2 capsules as prepared in Example 3 for 12 weeks or 24 weeks. Blood samples for measurement of ex vivo leukotriene B4 (LTB4) and high sensitivity C reactive protein (hsCRP), and urine samples for measurement of urinary leukotriene E4 (LTE4) levels were collected pre-dose on weeks 2, 6 and 12. Blood samples were assayed for ex vivo LTB4 by enzyme-linked immunosorbent assay, and for hsCRP by an immunoturbidimetric method. Urine samples were assayed for LTE4 using Liquid Chromatography with Tandem Mass Spectrometry (LC/MS/MS).

[2] = tested on: inflammatory genes, including IL-6, IL 8, IL-10, MMP9, I-kappa-B, osteopontin; assay: Inflammatory gene expression in carotid plaques (TaqMan), Phase 2 CEA study; format: in vivo, human; settings: rupture-prone plaque subtypes, 100 mg qd oral, 12 weeks
Method: In this randomized, double blind, placebo-controlled study, 50 patients with significant carotid artery stenosis (60-90%) were treated once daily for 12 weeks with orally administered 100 mg N-[3-[5-[(4-fluorophenyl)methyl]-2-thienyl]-1-methyl-2-propynyl]-N-hydroxyurea or placebo prior to undergoing CEA, at which time endarterectomy tissue (plaque) was collected and stored for subsequent tissue analysis. Baseline assessments are performed at the start of treatment and these baseline results were compared with repeat assessments during various follow-up periods of treatment. The treatment was conducted for twelve weeks at which time these baseline assessments were performed and compared.
At the end of 12 weeks treatment with 100 mg of N-[3-[5-[(4-fluorophenyl)methyl]-2-thienyl]-1-methyl-2-propynyl]-N-hydroxyurea, patients underwent CEA, at which time endarterectomy tissue (plaque) was collected, fixed in 10% formalin and paraffin blocks, and stored for subsequent tissue analysis. […] A portion of each of the plaques was also analyzed for inflammatory gene expression after isolation of total RNA and reverse transcription using a TaqMan® High Capacity cDNA assay.
LTB4, LTE4 and hsCRP biomarker data were assessed using change from baseline comparisons and an ANCOVA was used to compare the treatment groups where the covariate was the baseline value of the outcome measure. […]

non-calcified plaque = assay: Coronary plaque by MDCT (64-slice CT), Phase 2 ACS study, 24-week substudy; format: in vivo, human; settings: all three doses, serial MDCT images at 24 weeks
Method: In this randomized, placebo-controlled study, 191 patients were randomized 3 weeks after an acute coronary syndrome (ACS) to receive 25, 50, or 100 mg N-[3-[5-[(4-fluorophenyl)methyl]-2-thienyl]-1-methyl-2-propynyl]-N-hydroxyurea or placebo qd for 12 weeks. Baseline assessments were performed at the start of treatment and these baseline results were compared with repeat assessments during various follow-up periods during the treatment study. A subset of 93 patients who had undergone a Multidetector (64 slice coronary) Computerized Tomography (MDCT) examination at baseline continued on study medication for a total of 24 weeks and underwent a repeat scan. For those patients who continued on study medication for a total of 24 weeks, contrast-enhanced CT examination was performed at baseline and after 24 weeks of treatment with a 64-slice scanner (GE LightSpeed VCT; GE Healthcare, USA). Target plaque lesions were defined prospectively as non-calcified plaque with measurable low-density components of <60 HU situated in the proximal or middle portion of either the left main, left anterior ascending, left circumflex or right coronary artery causing at least 20% luminal stenosis. Prior to analysis of results, patients had their MDCT examinations evaluated twice by the same reviewer and also by a second reviewer for evaluation of intraobserver and interobserver variability of measurements.

leukotriene B4 (LTB4) = assay: Ex vivo LTB4 in blood by ELISA, Phase 2 ACS study; set-up: species or system human; settings: trough drug levels
Method: as §1

leukotriene E4 (LTE4) = assay: Urinary LTE4 by LC/MS/MS, Phase 2 ACS study; format: in vivo, human; settings: all doses (25, 50, 100 mg qd)
Method: as §1

## CC(C#Cc1ccc(Cc2ccc(F)cc2)s1)N(O)C(N)=O (centres unmarked) [VIA-2291, N-[3-[5-[(4-fluorophenyl)methyl]-2-thienyl]-1-methyl-2-propynyl]-N-hydroxyurea]
[1]; 100 mg group, P<0.01
  hsCRP within group between 12 and 24 weeks: significant reduction
[1]; 100-mg group at 24 weeks, P=0.0002
  decrease in hsCRP compared with placebo: 67%
[2]
  expression of inflammatory genes, including IL-6, IL 8, IL-10, MMP9, I-kappa-B, osteopontin: reduction in expression
non-calcified plaque
  new plaque lesions compared with placebo: reduced
  non-calcified plaque volume compared with placebo: reduced
Leukotriene B4 (LTB4); 100-mg group, in >90% of patients
  inhibition of ex vivo LTB4: approximately 80%
Leukotriene B4 (LTB4); all doses (25, 50, 100 mg qd), P<0.0001, dose-dependent
  ex vivo leukotriene LTB4: significantly reduced
Leukotriene E4 (LTE4)
  urinary leukotriene LTE4: significantly reduced
